One data set concerns the target T1, human TLR8 (Homo sapiens, UniProt Q9NR97).
T1 construct: host or cells: HEK293 (HEK-Blue hTLR8)
T1 sequence (Q9NR97 27-1041): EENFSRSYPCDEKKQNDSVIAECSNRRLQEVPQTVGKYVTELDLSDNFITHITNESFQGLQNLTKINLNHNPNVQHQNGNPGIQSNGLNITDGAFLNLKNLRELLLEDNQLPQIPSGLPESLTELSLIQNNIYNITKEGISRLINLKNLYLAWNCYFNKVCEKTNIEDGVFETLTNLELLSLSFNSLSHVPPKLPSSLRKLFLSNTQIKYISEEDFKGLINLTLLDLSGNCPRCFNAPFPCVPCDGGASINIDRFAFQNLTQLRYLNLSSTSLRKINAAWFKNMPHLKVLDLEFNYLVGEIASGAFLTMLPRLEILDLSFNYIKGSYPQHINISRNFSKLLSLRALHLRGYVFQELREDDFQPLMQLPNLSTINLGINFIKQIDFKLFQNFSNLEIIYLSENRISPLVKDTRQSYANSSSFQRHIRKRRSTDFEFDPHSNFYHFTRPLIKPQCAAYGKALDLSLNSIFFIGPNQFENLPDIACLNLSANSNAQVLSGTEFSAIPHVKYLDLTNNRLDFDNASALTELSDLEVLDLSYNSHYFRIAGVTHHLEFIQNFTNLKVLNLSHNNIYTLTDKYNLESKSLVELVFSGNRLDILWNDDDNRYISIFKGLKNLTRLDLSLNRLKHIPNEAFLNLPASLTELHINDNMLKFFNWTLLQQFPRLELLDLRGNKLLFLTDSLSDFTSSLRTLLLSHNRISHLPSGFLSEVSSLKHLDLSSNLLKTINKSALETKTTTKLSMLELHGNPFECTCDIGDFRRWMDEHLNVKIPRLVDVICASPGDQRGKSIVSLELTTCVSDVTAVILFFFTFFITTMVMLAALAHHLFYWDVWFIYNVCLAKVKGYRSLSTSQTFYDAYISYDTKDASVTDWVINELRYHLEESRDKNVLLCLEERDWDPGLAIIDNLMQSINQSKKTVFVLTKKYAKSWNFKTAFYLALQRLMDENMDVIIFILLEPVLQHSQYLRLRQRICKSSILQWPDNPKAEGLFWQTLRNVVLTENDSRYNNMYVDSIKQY
The experiment in a line: HEK293-Blue-hTLR-8 cells assay (SEAP reporter, R848 stimulation). It counts as cell-based. To be noted: HEK293-Blue-hTLR8 cells, R848, 20 hrs. As for the experimental part:
The following tests were carried out in order to determine the activity of the compounds of formula (I) in HEK293-Blue-hTLR-7/8/9 cells assay.
HEK293-Blue-hTLR-8 Cells Assay:
A stable HEK293-Blue-hTLR-8 cell line was purchased from InvivoGen (Cat. #: hkb-htlr8, San Diego, Calif., USA). These cells were originally designed for studying the stimulation of human TLR8 by monitoring the activation of NF-κB. A SEAP (secreted embryonic alkaline phosphatase) reporter gene was placed under the control of the IFN-β minimal promoter fused to five NF-κB and AP-1-binding sites. The SEAP was induced by activating NF-κB and AP-1 via stimulating HEK-Blue hTLR8 cells with TLR8 ligands. Therefore the reporter expression was declined by TLR8 antagonist under the stimulation of a ligand, such as R848, for incubation of 20 hrs. The cell culture supernatant SEAP reporter activity was determined using QUANTI-Blue™ kit (Cat #. rep-qbl, Invivogen, San Diego, Calif., USA) at a wavelength of 640 nm, a detection medium that turns purple or blue in the presence of alkaline phosphatase.
HEK293-Blue-hTLR8 cells were incubated at a density of 250,000˜450,000 cells/mL in a volume of 170 μL in a 96-well plate in Dulbecco's Modified Eagle's medium (DMEM) containing 4.5 g/L glucose, 50 U/mL penicillin, […], […], 2 mM L-glutamine, 10% (v/v) heat-inactivated fetal bovine serum with addition of 20 μL test compound in a serial dilution in the presence of final DMSO at 1% and 10 μL of 60 μM R848 in above DMEM, perform incubation under 37° C. in a CO2 incubator for 20 hrs. Then 20 μL of the supernatant from each well was incubated with 180 μL Quanti-blue substrate solution at 37° C. for 2 hrs and the absorbance was read at 620˜655 nm using a spectrophotometer. The signalling pathway that TLR8 activation leads to downstream NF-KB activation has been widely accepted, and therefore similar reporter assay was modified for evaluating TLR8 antagonist.

Another data set is described as follows: LYSA solubility assay. It counts as physicochemical. The note with it: for solubility thermodynamic: thermodynamic from solid. As for the experimental part:
LYSA study is used to determine the aqueous solubility of tested compounds. Samples are prepared in duplicate from 10 mM DMSO stock solution. After evaporation of DMSO with a centrifugal vacuum evaporator, compounds are dissolved in a 0.05 M phosphate buffer (pH 6.5), stirred for one hr and shaken for two hrs. After one night, the solutions are filtered using a microtiter filter plate. Then the filtrate and its 1/10 dilution are analyzed by HPLC-UV. In addition, a four-point calibration curve is prepared from the 10 mM stock solutions and used for the solubility determination of the compounds. The results are in μg/mL. In case the percentage of sample measured in solution after evaporation divided by the calculated maximum of sample amount is bigger than 80%, the solubility is reported as bigger than this value.

[1] abbreviates: 0.05 M phosphate buffer, pH 6.5, aqueous buffer.

A word on the IC50: it is the concentration needed to halve the response being measured. Lower therefore signals higher potency. Broadly, the solubility (thermodynamic) is the concentration in solution at equilibrium with solid. In turn, `C[C@@H]1CN(c2ccc(Cl)c3ncccc23)C[C@H](C(=O)NC2CCN(C)CC2)O1` [Example 24, (2R,6R)-4-(8-chloro-5-quinolyI)-6-methyl-N-(1-methyl-4-piperidyl)morpholine-2-carboxamide] came in with an IC50 at human TLR8 below 3 nM. The compound also showed a thermodynamic solubility in the data set “LYSA solubility assay” (setting [1]) above 475 µg/mL.

At human TLR8, `C[C@@H]1CN(c2ccc(C(F)(F)F)c3ncccc23)C[C@H](C(=O)NCC2CN(C)CCO2)O1` (stereo partly drawn) [Example 3, (2R,6R)-6-methyl-N-[(4-methylmorpholin-2-yl)methyl]-4-[8-(trifluoromethyl)-5-quinolyl]morpholine-2-carboxamide] yielded an IC50 below 3 nM. In the data set “LYSA solubility assay” (setting [1]), the solubility (thermodynamic) was above 690 µg/mL.

As for `C[C@@H]1CN(c2ccc([N+](=O)[O-])c3ncccc23)C[C@H](C(=O)NCC2CN(C)CCO2)O1` (stereo partly drawn) [Example 18, (2R,6R)-6-methyl-N-[(4-methylmorpholin-2-yl)methyl]-4-(8-nitro-5-quinolyl)morpholine-2-carboxamide], the IC50 at human TLR8 is below 3 nM. The solubility (thermodynamic) in the data set “LYSA solubility assay” (setting [1]) was above 530 µg/mL.

As for `C[C@@H]1CN(c2ccc(C(F)(F)F)c3ncccc23)C[C@H](C(=O)NC2CC3CNCC32)O1` (single isomer, unassigned) [Example 49A], on human TLR8, inhibition was half-maximal at 22 nM (IC50). The same compound had a thermodynamic solubility in the data set “LYSA solubility assay” (setting [1]) above 660 µg/mL.

At human TLR8, `C[C@@H]1CN(c2ccc(Cl)c3ncccc23)C[C@H](C(=O)NC2CCCNCC2)O1` (stereo partly drawn) [Example 25, (2R,6R)-N-(azepan-4-yl)-4-(8-chloro-5-quinolyl)-6-methyl-morpholine-2-carboxamide] showed an IC50 below 3 nM. Moreover, in the data set “LYSA solubility assay” (setting [1]), the thermodynamic solubility was above 470 µg/mL.

With `C[C@@H]1CN(c2ccc(C(F)(F)F)c3ncccc23)C[C@H](C(=O)N2CC(N)C2)O1` [Example 7, (3-aminoazetidin-1-yl)-[(2R,6R)-6-methyl-4-[8-(trifluoromethyl)-5-quinolyl]morpholin-2-yl]methanone], inhibition against human TLR8 was half-maximal at 35 nM (IC50). In the data set “LYSA solubility assay” (setting [1]), the solubility (thermodynamic) was above 605 µg/mL.

`C[C@@H]1CN(c2ccc(C(F)(F)F)c3ncccc23)C[C@H](C(=O)NC2C3CCCC2CNC3)O1` (stereo partly drawn) [Example 45, (2R,6R)-N-(3-azabicyclo[3.3.1]nonan-9-yl)-6-methyl-4-[8-(trifluoromethyl)-5-quinolyl]morpholine-2-carboxamide] gave an IC50 against human TLR8 below 3 nM. Besides, the thermodynamic solubility in “LYSA solubility assay” (setting [1]) was above 660 µg/mL.

At human TLR8, `Cc1ccc(N2C[C@@H](C)O[C@@H](C(=O)NCC3CN(C)CCO3)C2)c2cccnc12` (stereo partly drawn) [Example 17, (2R,6R)-6-methyl-N-[(4-methylmorpholin-2-yl)methyl]-4-(8-methyl-5-quinolyl)morpholine-2-carboxamide] showed an IC50 of 25 nM. Further, in “LYSA solubility assay” (setting [1]), the solubility (thermodynamic) is above 485 µg/mL.

For `C[C@@H]1CN(c2ccc(C(F)(F)F)c3ncccc23)C[C@H](C(=O)N[C@@H]2CNC[C@@H]2F)O1` (single isomer, unassigned) [Example 2A], on human TLR8, the IC50 was below 3 nM. In addition, the thermodynamic solubility in “LYSA solubility assay” (setting [1]) is above 580 µg/mL.

For the compound `C[C@@H]1CN(c2ccc(C(F)(F)F)c3ncccc23)C[C@H](C(=O)NC2CN(C)CC23CC3)O1` (stereo partly drawn) [Example 9, (2R,6R)-6-methyl-N-(5-methyl-5-azaspiro[2.4]heptan-7-yl)-4-[8-(trifluoromethyl)-5-quinolyl]morpholine-2-carboxamide], the IC50 at human TLR8 is below 3 nM. Besides, the solubility (thermodynamic) in “LYSA solubility assay” (aqueous buffer, 0.05 M phosphate buffer (pH 6.5)) was above 685 µg/mL.

In turn, `C[C@@H]1CN(c2ccc(C(F)(F)F)c3ncccc23)C[C@H](C(=O)NCC2COCCN2C)O1` (stereo partly drawn) [Example 11, (2R,6R)-6-methyl-N-[(4-methylmorpholin-3-yl)methyl]-4-[8-(trifluoromethyl)-5-quinolyl]morpholine-2-carboxamide] yielded an IC50 against human TLR8 of 62 nM. Besides, the thermodynamic solubility in the data set “LYSA solubility assay” (setting [1]) was above 740 µg/mL.

`C[C@@H]1CN(c2ccc(C(F)(F)F)c3ncccc23)C[C@H](C(=O)NC2CCN(C)CC2)O1` [Example 5, (2R,6R)-6-methyl-N-(1-methyl-4-piperidyl)-4-[8-(trifluoromethyl)-5-quinolyl]morpholine-2-carboxamide]: the IC50 against human TLR8 is below 3 nM. The solubility (thermodynamic) in the data set “LYSA solubility assay” (setting [1]) was above 655 µg/mL.

Consider `C[C@@H]1CN(c2ccc(C(F)(F)F)c3ncccc23)C[C@H](C(=O)NC2CNC[C@@H]2F)O1` (stereo partly drawn) [Example 2, cis-(2R,6R)-N-(4-fluoropyrrolidin-3-yl)-6-methyl-4-[8-(trifluoromethyl)-5-quinolyl]morpholine-2-carboxamide], for which the IC50 on human TLR8 was determined as 6 nM. Also, the solubility (thermodynamic) in the data set “LYSA solubility assay” (setting [1]) is above 585 µg/mL.

On human TLR8, `Cc1ccc(N2C[C@@H](C)O[C@@H](C(=O)N[C@@H]3CNC[C@@H]3F)C2)c2cccnc12` [Example 21, cis-(2R,6R)-N-14-fluoropyrrolidin-3-yl1-6-methyl-4-(8-methyl-5-quinolyl)morpholine-2carboxamide] displayed a half-maximal inhibitory concentration (IC50) of 9 nM. The compound also yielded a solubility (thermodynamic) in the data set “LYSA solubility assay” (setting [1]) above 435 µg/mL.

`C[C@@H]1CN(c2ccc(C(F)(F)F)c3ncccc23)C[C@H](C(=O)NC2CC3CCCC(C2)N3)O1` (single isomer, unassigned) [Example 34B]: at human TLR8, it took 6 nM to reach half-maximal inhibition (IC50). In addition, in the data set “LYSA solubility assay” (0.05 M phosphate buffer (pH 6.5)), the LYSA was above 610.0 µg/mL.

On human TLR8, `C[C@@H]1CN(c2ccc(Br)c3ncccc23)C[C@H](C(=O)NC2CCN(C)CC2)O1` [Example 42, (2R,6R)-4-(8-bromo-5-quinolyl)-6-methyl-N-(1-methyl-4-piperidyl)morpholine-2-carboxamide] showed an IC50 below 3 nM. Further, the solubility (thermodynamic) in “LYSA solubility assay” (setting [1]) was above 550 µg/mL.

At human TLR8, `C[C@@H]1CN(c2ccc(Cl)c3ncccc23)C[C@H](C(=O)N[C@H]2CNC[C@H]2F)O1` [Example 22, (2R,6R)-4-(8-chloro-5-quinolyl)-N-[(3S,4R)-4-fluoropyrrolidin-3-yl]-6-methyl-morpholine-2-carboxamide] returned an IC50 of 19 nM. Further, the thermodynamic solubility in “LYSA solubility assay” (setting [1]) is above 455 µg/mL.

`C[C@@H]1CN(c2ccc(C(F)(F)F)c3ncccc23)C[C@H](C(=O)NCC2CCCCN2C)O1` (stereo partly drawn) [Example 4, (2R,6R)-6-methyl-N-[(1-methyl-2-piperidyl)methyl]-4-[8-(trifluoromethyl)-5-quinolyl]morpholine-2-carboxamide]: inhibition at human TLR8 was half-maximal at 10 nM (IC50). Further, in “LYSA solubility assay” (setting [1]), the thermodynamic solubility is above 660 µg/mL.

`C[C@@H]1CN(c2ccc(C(F)(F)F)c3ncccc23)C[C@H](C(=O)NCC2CNCCO2)O1` (stereo partly drawn) [Example 48, (2R,6R)-6-methyl-N-(morpholin-2-ylmethyl)-4-[8-(trifluoromethyl)-5-quinolyl]morpholine-2-carboxamide]: on human TLR8, the IC50 was below 3 nM. In the data set “LYSA solubility assay” (setting [1]), the thermodynamic solubility is above 625 µg/mL.

On human TLR8, `C[C@@H]1CN(c2ccc(C(F)(F)F)c3ncccc23)C[C@H](C(=O)NC2C[C@H]3C[C@@H]2CN3)O1` (stereo partly shown) [Example 44] had an IC50 of 43 nM. This compound registered a thermodynamic solubility in “LYSA solubility assay” (setting [1]) above 600 µg/mL.
